{"source": "patent US20100086519A1", "about": "“Treatment of Hepatitis C Infection With Metalloporphyrins” (The Charlotte-Mecklenburg Hospital Authority d/b/a …, priority 2008, published 2010)", "key": {"HCV": {"test_system": "HCV", "assay": "anti-viral activity (summary statement)", "format": "cell-based, hepatitis C virus"}, "HCV NS5A protein [1]": {"target": "T1, HCV NS5A protein (Hepatitis C virus genotype 1b, UniProt Q9WMX2)", "T1 sequence (Q9WMX2 1973-2419)": "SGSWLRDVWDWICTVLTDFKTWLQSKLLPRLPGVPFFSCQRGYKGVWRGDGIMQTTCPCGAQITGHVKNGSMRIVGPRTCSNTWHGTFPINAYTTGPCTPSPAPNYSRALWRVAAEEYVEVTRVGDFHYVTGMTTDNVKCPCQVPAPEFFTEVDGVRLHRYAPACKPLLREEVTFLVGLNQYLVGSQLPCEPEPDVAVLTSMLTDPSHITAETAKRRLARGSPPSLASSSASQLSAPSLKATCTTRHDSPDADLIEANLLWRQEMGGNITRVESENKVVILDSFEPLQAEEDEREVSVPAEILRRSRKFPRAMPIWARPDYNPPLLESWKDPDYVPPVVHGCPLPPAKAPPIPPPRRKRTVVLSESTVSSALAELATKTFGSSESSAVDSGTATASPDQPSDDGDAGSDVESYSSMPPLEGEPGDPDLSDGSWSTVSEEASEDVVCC", "assay": "polyubiquitination of NS5A by immunoprecipitation and immunoblot in 9-13 cells", "format": "cell-based", "design": "processed into structural (C, E1, E2) and nonstructural (NS2, NS3, NS4A, NS4B, NS5A and NS5B) proteins; expressed in transfected cells; host or cells: 9-13 cells (human hepatoma cells with a replicating HCV NS3-NS5B region)", "protocol": "Immunoprecipitation was carried out according to the Manufacturer's protocol. Briefly, cells were harvested in cold radioimmunoprecipitation assay (RIPA) buffer (50 mM Tris-HC1 [pH 7.4], 150 mM NaCl, 1 mM EDTA, 0.25% sodium deoxycholate, 1% IGEPAL CA-630, 1 mM PMSF, 1 mM NaF, 1 mM Na3VO4 and 1 μg/ml each of aprotinin, leupeptin, and pepstatin). The samples were pre-cleared with Protein A/G Agarose for 10 min at 4° C. and subsequently incubated while gently rotating at 4° C. overnight with primary antibody, followed by Protein A/G beads for 1 h at 4° C. Beads were spun down and washed twice with RIPA buffer. Protein samples were separated by electrophoresis on 4-15% SDS-PAGE gels, and transferred to PVDF membrane, conjugated ubiquitin was detected as described for Western blot analysis using anti-ubiquitin antibody.\nThis Example investigates whether ZnMP induces polyubquitination of NS5A to gain insight into the mechanism by which ZnMP mediates degradation of NS5A protein. 9-13 cells were treated without or with 10 μM ZnMP for 4 h. Total proteins were extracted for subsequent Western blot or immunoprecipitation analysis. Immunoprecipitation was carried out using anti-HCV NS5A antibody. Ubiquitin conjugation of NS5A [polyubiquitinated NS5A (Ub)n-NS5A]was examined with immunoprecipitation using an anti-HCV NS5A antibody and immunoblot using an anti-ubiquitin antibody. […] In FIG. 6B, ubiquitination of NS5A following ZnMP treatment, or vehicle (DMSO) only was compared. The positions of molecular mass markers (in kilodaltons) are indicated to the left of the gel. The bracket indicates polyubiquitinated NS5A. Asterisks indicate cross-reacting immunoglobulin heavy chain. […] These bands may represent polyubiquitinated NS5A."}, "HCV NS5A protein [2]": {"target": "T1, HCV NS5A protein", "assay": "NS5A protein levels by Western blot in 9-13 cells", "format": "cell-based", "design": "processed into structural (C, E1, E2) and nonstructural (NS2, NS3, NS4A, NS4B, NS5A and NS5B) proteins; expressed in transfected cells; host or cells: 9-13 cells (human hepatoma cells with a replicating HCV NS3-NS5B region)", "conditions": "9-13 cells; for NS5A protein levels, proteasome inhibitor alone: absence of ZnMP, FIG. 5C; for effect on degradation of NS5A by ZnMP 5 μM: epoxomicin 5, 10 μM or MG132 10, 20 μM 30 min before ZnMP 5 μM; for effect on degradation of NS5A by ZnMP 5 μM / effect on degradation of NS5A by ZnMP 10 μM / NS5A protein levels: 4 hours; for effect on degradation of NS5A by ZnMP 10 μM: epoxomicin 5, 10 μM or MG132 10, 20 μM 30 min before ZnMP 10 μM; for NS5A protein levels: 10 μM, FIG. 2A", "source_text": "Bartenschlager (University of Heidelberg, Heidelberg, Germany).\nBiochim Biophys Acta 2008; 1779:195-203."}, "HO-1 gene": {"test_system": "HO-1 gene", "conditions": "NIH 3T3 cells; cited from earlier work"}, "Bach1": {"target": "T2, Bach1 (Mus musculus, UniProt P97302)", "T2 construct": "host or cells: NIH 3T3 cells", "T2 sequence (P97302 1-739)": "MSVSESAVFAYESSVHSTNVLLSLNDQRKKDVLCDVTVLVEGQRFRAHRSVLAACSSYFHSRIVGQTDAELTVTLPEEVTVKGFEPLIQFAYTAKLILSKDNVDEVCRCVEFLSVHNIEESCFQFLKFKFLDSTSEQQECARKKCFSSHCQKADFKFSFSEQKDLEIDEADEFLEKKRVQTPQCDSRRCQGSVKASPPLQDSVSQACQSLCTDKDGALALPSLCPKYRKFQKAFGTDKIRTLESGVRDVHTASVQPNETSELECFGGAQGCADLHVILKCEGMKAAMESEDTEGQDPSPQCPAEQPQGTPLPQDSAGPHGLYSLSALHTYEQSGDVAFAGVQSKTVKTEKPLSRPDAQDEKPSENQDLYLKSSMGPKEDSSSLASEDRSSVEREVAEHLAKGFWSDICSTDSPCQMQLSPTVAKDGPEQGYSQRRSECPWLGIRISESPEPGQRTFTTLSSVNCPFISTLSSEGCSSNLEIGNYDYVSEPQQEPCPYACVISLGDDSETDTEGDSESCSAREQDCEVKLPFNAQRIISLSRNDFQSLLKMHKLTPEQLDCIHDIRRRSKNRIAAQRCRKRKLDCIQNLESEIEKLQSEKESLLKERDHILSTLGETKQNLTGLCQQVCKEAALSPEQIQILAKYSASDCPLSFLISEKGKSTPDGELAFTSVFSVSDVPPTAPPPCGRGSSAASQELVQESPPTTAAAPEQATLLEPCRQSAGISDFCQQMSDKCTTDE", "conditions": "NIH 3T3 cells; cited from earlier work"}, "9-13 cells": {"test_system": "9-13 cells", "assay": "growth of cells exposed to proteasome inhibitor", "format": "cell-based, human", "conditions": "20 μM"}}, "note": "Where a SMILES comes first, the peptide text is derived from it. The star is where a group is joined. Cbz = O=C(OCc1ccccc1)*"}
{"molecule": "C=CC1=C(C)c2cc3[n-]c(cc4nc(cc5[n-]c(cc1n2)c(C)c5C=C)C(C)=C4CCC(=O)O)c(CCC(=O)O)c3C.[Zn+2]", "note": "[ZnPP, Zinc protoporphyrin]", "values": [{"measurement": "anti-viral activity (summary statement)", "setting": "HCV", "value": "display anti-viral activity"}, {"measurement": "polyubquitination of NS5A (summary statement)", "setting": "HCV NS5A protein [1]", "value": "induce polyubquitination"}]}
{"molecule": "c1ccc(CN(CCN(Cc2ccccn2)Cc2ccccn2)Cc2ccccn2)nc1", "note": "[TEPN, N, N, N, N-tetrakis-(2-pyridylmethyl) ethylenediamine]", "values": [{"measurement": "effect on ZnMP-mediated down-regulation of NS5A protein levels", "setting": "HCV NS5A protein [2]; chelator 30 min before ZnMP, then 4 h, FIG. 3", "value": "did not affect"}]}
{"molecule": "Tin mesoporphyrin [SnMP]", "values": [{"measurement": "HO-1 gene expression", "setting": "HO-1 gene", "value": "induce"}, {"measurement": "Bach1 protein levels", "setting": "Bach1", "value": "down-regulate"}, {"measurement": "NS5A protein levels, time course", "setting": "HCV NS5A protein [2]; 10 μM, 0, 2, 4, 6 h, FIG. 2B", "value": "no detectable effects"}]}
{"molecule": "CC[C@H](C)[C@H](NC(=O)[C@H]([C@@H](C)CC)N(C)C(C)=O)C(=O)N[C@H](C(=O)N[C@@H](CC(C)C)C(=O)[C@@]1(C)CO1)[C@@H](C)O", "note": "[epoxomicin]", "values": [{"measurement": "NS5A protein levels, proteasome inhibitor alone", "setting": "HCV NS5A protein [2]", "value": "did not affect"}, {"measurement": "effect on degradation of NS5A by ZnMP 5 μM", "setting": "HCV NS5A protein [2]", "value": "completely abrogated"}, {"measurement": "effect on degradation of NS5A by ZnMP 10 μM", "setting": "HCV NS5A protein [2]", "value": "significant reversal"}, {"measurement": "toxicity to the cells (cell growth)", "setting": "9-13 cells", "value": "toxic"}]}
{"molecule": "[Cl-].[Cl-].[Zn+2]", "note": "[ZnCl2, zinc chloride]", "values": [{"measurement": "NS5A protein levels", "setting": "HCV NS5A protein [2]", "value": "not affected"}]}
{"molecule": "CC(C)C[C@@H](C=O)NC(=O)[C@H](CC(C)C)NC(=O)[C@H](CC(C)C)NC(=O)OCc1ccccc1", "note": "[MG132] (Cbz-Leu-Leu-Leu-aldehyde)", "values": [{"measurement": "NS5A protein levels, proteasome inhibitor alone", "setting": "HCV NS5A protein [2]", "value": "did not affect"}, {"measurement": "effect on degradation of NS5A by ZnMP 5 μM", "setting": "HCV NS5A protein [2]", "value": "completely abrogated"}, {"measurement": "effect on degradation of NS5A by ZnMP 10 μM", "setting": "HCV NS5A protein [2]", "value": "significant reversal"}]}
{"molecule": "mesoporphyrin", "values": [{"measurement": "NS5A protein levels", "setting": "HCV NS5A protein [2]", "value": "not affected"}]}
